# Assay results as given in US12371454B2, “Cyclic peptide compound having Kras inhibitory action” (priority 2019, dated 2025).
# Starred links: 1 amine or outer side, 2 acyl side, 3 side chain; linkers in the order of their positions; H or OH if unused. Positions of bridges follow the written chain, without caps; N, C: chain ends. Non-standard residues stand in square brackets, D forms with d. Residues, ends and D or L forms follow the SMILES beside them. *: point of attachment. NMePhe(4-Cl) = CN[C@@H](Cc1ccc(Cl)cc1)C(=O)O; NMedβ3hAla = C[C@H](CC(=O)[*:2])N(C)[*:1]; Leu(4,5-dehydro) = C=C(C)C[C@H](N)C(=O)O; NMeAla(cPent) = CN[C@@H](CC1CCCC1)C(=O)O; Phe(3-Cl) = N[C@@H](Cc1cccc(Cl)c1)C(=O)O; Phe(3-OMe) = COc1cccc(C[C@H](N)C(=O)O)c1; Phe(3-I) = N[C@@H](Cc1cccc(I)c1)C(=O)O; X10 = CC(C)=CC[C@H](N[*:1])C(=O)[*:2]; NMeCba = CN[C@@H](CC1CCC1)C(=O)O; NMeD = CN[C@@H](CC(=O)O)C(=O)O; NMeL = CN[C@@H](CC(C)C)C(=O)O; NMeA = CN[C@@H](C)C(=O)O; NMeAib = CNC(C)(C)C(=O)O; Nle = CCCC[C@H](N)C(=O)O; Piperidide = C1CCN(*)CC1; Pyrrolidide = C1CCN(*)C1; Aze = O=C(O)[C@@H]1CCN1; Nva = CCC[C@H](N)C(=O)O; Sar = CNCC(=O)O
# Biological target: T1, Kras and SOS1 (biotin-tagged human Kras loaded with GDP, His-tagged human SOS1) (Homo sapiens, UniProt P01116, G12D)
# T1 construct: made in house; host or cells: E. coli (stated for Kras only)
# T1 sequence (P01116 1-188 isoform P01116-2 G12D): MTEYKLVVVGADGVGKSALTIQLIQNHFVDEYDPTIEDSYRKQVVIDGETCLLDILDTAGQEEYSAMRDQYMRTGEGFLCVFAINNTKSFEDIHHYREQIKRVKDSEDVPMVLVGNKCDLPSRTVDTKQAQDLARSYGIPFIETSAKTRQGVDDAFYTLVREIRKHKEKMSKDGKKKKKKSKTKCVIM
# Experiment: Protein-protein interaction inhibition between Kras and SOS1 (KrasGl2D-SOS PPI) using AlphaScreen
# Type: binding
# Conditions: AlphaScreen; biotin-tagged human Kras loaded with GDP, His-tagged human SOS1; read-out: KRAS G12D-SOS PPI IC50
# How it was run: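 Binding between SOS1 and Kras is detected as bead-proximity luminescence: illuminate Ni-conjugated donors (680 nm), collect 520-620 nm emission from streptavidin-conjugated acceptors; Kras carries biotin and GDP loaded after purification, SOS1 carries a His tag.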
row,SMILES,IC50
1,"C=C(C)C[C@@H]1NC(=O)[C@H](Cc2cccc(I)c2)NC(=O)CN(C)C(=O)[C@H](CC2CCCC2)N(C)C(=O)[C@@H]2CCN2C(=O)[C@H](C)N(C)C(=O)[C@H]([C@@H](C)CC)NC(=O)[C@H](CC(C)C)N(C)C(=O)C[C@@H](C(=O)N2CCCCC2)N(C)C(=O)[C@H](CC(C)C)NC(=O)C(C)(C)N(C)C1=O [Compound 1405] ([NMeL]I[NMeA][Aze][NMeAla(cPent)][Sar][Phe(3-I)][Leu(4,5-dehydro)][NMeAib]L[NMeD]-Piperidide; lactam N-11)",82 nM
2,CCCC[C@@H]1NC(=O)[C@H](Cc2cccc(Cl)c2)NC(=O)CN(C)C(=O)[C@H](Cc2ccc(Cl)cc2)N(C)C(=O)CN(C)C(=O)CN(C)C(=O)[C@H]([C@@H](C)CC)NC(=O)[C@H](CC(C)C)N(C)C(=O)C[C@@H](C(=O)N2CCCC2)N(C)C(=O)[C@H](CC(C)C)NC(=O)C(C)(C)N(C)C1=O [Compound 1407] ([NMeL]I[Sar][Sar][NMePhe(4-Cl)][Sar][Phe(3-Cl)][Nle][NMeAib]L[NMeD]-Pyrrolidide; lactam N-11),170 nM
3,CC[C@H](C)[C@@H]1NC(=O)[C@H](CC(C)C)N(C)C(=O)C[C@@H](C)N(C)C(=O)[C@H](CC(C)C)NC(=O)C(C)(C)N(C)C(=O)[C@H](CC=C(C)C)NC(=O)[C@H](Cc2cccc(I)c2)NC(=O)CN(C)C(=O)[C@H](Cc2ccc(Cl)cc2)N(C)C(=O)[C@@H]2CCN2C(=O)CN(C)C1=O [Compound 1408] (cyclo([Aze][NMePhe(4-Cl)][Sar][Phe(3-I)][X10][NMeAib]L[NMedβ3hAla][NMeL]I[Sar])),160 nM
4,CCCC[C@@H]1NC(=O)[C@H](Cc2cccc(I)c2)NC(=O)CN(C)C(=O)[C@H](Cc2ccc(Cl)cc2)N(C)C(=O)CN(C)C(=O)CN(C)C(=O)[C@H]([C@@H](C)CC)NC(=O)[C@H](CC(C)C)N(C)C(=O)C[C@@H](C(=O)N2CCCC2)N(C)C(=O)[C@H](Cc2ccccc2)NC(=O)C(C)(C)N(C)C1=O [Compound 1409] ([NMeL]I[Sar][Sar][NMePhe(4-Cl)][Sar][Phe(3-I)][Nle][NMeAib]F[NMeD]-Pyrrolidide; lactam N-11),170 nM
5,CCCC[C@@H]1NC(=O)[C@H](Cc2cccc(I)c2)NC(=O)CN(C)C(=O)[C@H](Cc2ccc(Cl)cc2)N(C)C(=O)CN(C)C(=O)CN(C)C(=O)[C@H]([C@@H](C)CC)NC(=O)[C@H](CC(C)C)N(C)C(=O)C[C@@H](C(=O)N2CCCC2)N(C)C(=O)[C@H](CCC)NC(=O)C(C)(C)N(C)C1=O [Compound 1410] ([NMeL]I[Sar][Sar][NMePhe(4-Cl)][Sar][Phe(3-I)][Nle][NMeAib][Nva][NMeD]-Pyrrolidide; lactam N-11),270 nM
6,CCCC[C@@H]1NC(=O)[C@H](Cc2cccc(OC)c2)NC(=O)CN(C)C(=O)[C@H](Cc2ccc(Cl)cc2)N(C)C(=O)CN(C)C(=O)CN(C)C(=O)[C@H]([C@@H](C)CC)NC(=O)[C@H](CC(C)C)N(C)C(=O)C[C@@H](C(=O)N2CCCC2)N(C)C(=O)[C@H](CC(C)C)NC(=O)C(C)(C)N(C)C1=O [Compound 1412] ([NMeL]I[Sar][Sar][NMePhe(4-Cl)][Sar][Phe(3-OMe)][Nle][NMeAib]L[NMeD]-Pyrrolidide; lactam N-11),310 nM
7,CCCC[C@@H]1NC(=O)[C@H](Cc2cccc(I)c2)NC(=O)CN(C)C(=O)[C@H](CC2CCC2)N(C)C(=O)[C@@H]2CCN2C(=O)[C@H](C)N(C)C(=O)[C@H]([C@@H](C)CC)NC(=O)[C@H](CC(C)C)N(C)C(=O)C[C@@H](C(=O)N2CCCCC2)N(C)C(=O)[C@H](CC(C)C)NC(=O)C(C)(C)N(C)C1=O [Compound 1413] ([NMeL]I[NMeA][Aze][NMeCba][Sar][Phe(3-I)][Nle][NMeAib]L[NMeD]-Piperidide; lactam N-11),190 nM
8,"C=C(C)C[C@@H]1NC(=O)[C@H](Cc2cccc(I)c2)NC(=O)CN(C)C(=O)[C@H](Cc2ccc(Cl)cc2)N(C)C(=O)[C@@H]2CCN2C(=O)CN(C)C(=O)[C@H]([C@@H](C)CC)NC(=O)[C@H](CC(C)C)N(C)C(=O)C[C@@H](C(=O)N2CCCCC2)N(C)C(=O)[C@H](CC(C)C)NC(=O)C(C)(C)N(C)C1=O [Compound 1414] ([NMeL]I[Sar][Aze][NMePhe(4-Cl)][Sar][Phe(3-I)][Leu(4,5-dehydro)][NMeAib]L[NMeD]-Piperidide; lactam N-11)",38 nM
